# How the values were obtained:
# [1] = test system: dendritic cells induced from C57BL/6 mouse bone marrow cells with Flt-3L (mDCs, CD11c+CD11b+); assay: Regulatory DC-inducing activity of 14-dehydroergosterol (Example 9); format: cell-based
# Method: Regulatory DC induction activity was evaluated for 14-dehydroergosterol (14-DHE) isolated and purified from wheat bran fermented with koji as described above and subjected to structural determination. As controls, ergosterol (Wako Pure Chemical Industries, Japan) and 9(11)-dehydroergosterol (9(11)-DHE) (Sigma-Aldrich Corp.), which are ergosterol-related substances, were used. Also, as conjugated linoleic acid (CLA) that was reported in connection with the inhibition of DC activation in the past, CLA (9Z, 11E) and CLA (10E, 12Z) (both, Cayman Chemical), and linoleic acid (Wako Pure Chemical Industries, Japan) were also subjected to activity determination (J. Immunol., 175(8): 4990-8, Oct. 15, 2005). As negative controls, a sample (none) to which no compound had been administered and a sample (ctrl) to which only LPS had been administered were also subjected to activity determination.
# In a manner similar to Example 2, bone marrow cells were prepared from C57BL/6 mouse thigh bone, and then dendritic cells were induced using Flt-3L. Each test substance was added simultaneously with the initiation of culture at a concentration of 1 μM, 5 μM, or 10 μM. Seven days later, LPS (from Salmonella typhosa) (Sigma-Aldrich Corp.) was added at 5 ng/mL and then 24 hours later the cells were recovered. Subsequently, the cells were stained for the following cell markers and then subjected to flow cytometry analysis. All antibodies used were produced by Becton, Dickinson and Company. CD11c^+CD11b^+ was set as a gate for mDCs and then the expression levels of CD40, CD80, CD86, I-A/I-E, and ICOS-L were measured. Also, IL-12p40 and IL-10 in culture supernatants were measured by ELISA.
# [2] = test system: mDCs treated with 14-DHE co-cultured with naive CD4+ T cells; assay: Antigen-non-specific Treg-inducing capacity (MLR) of DCs treated with 14-DHE (Example 10); format: cell-based, mouse
# Method: In a manner similar to that in the above Examples, DCs were induced using Flt-3L from BALB/c mouse bone marrow cells in the presence of a processed product of wheat bran fermented with koji and then treated with LPS for 24 hours. mDCs were sorted from the thus obtained cells in a manner similar to that in Example 3 and then subjected to mitomycin C treatment to stop the DC proliferation.
# Next, naive CD4^+ T cells were sorted from C57BL/6, DCs and the sorted cells were mixed at DC:CD4^+T=1:10 (the number of cells), and then they were co-cultured. At this time, the medium was supplemented with 0.5 ng/mL TGF-β1 (Peprotech).
# Seven days layer, cells were recovered and then the proportion of FoxP3^+CD25^+ T cells in CD^+ T cells was determined using a flow cytometer (after staining of cell surface markers using anti-CD25-FITC, anti-CD3-APC-Cy7, and anti-CD4-PerCP, cell permeabilization treatment was performed using a Foxp3 Staining Buffer Set (e Bioscience) according to the manufacturer's instructions, and then intracellular Foxp3 was stained with anti-Foxp3-PE (e Bioscience)). […]
# In a manner similar to that in Example 5, the Treg-inducing activity of mDCs treated with 14-DHE was measured. […]
# [3] = test system: mDCs treated with 14-DHE co-cultured with OVA-specific naive CD4+ T cells; assay: Antigen-specific Treg-inducing capacity of DCs treated with 14-DHE (Example 10); format: cell-based, mouse
# Method: Various DCs were prepared similarly to (A). Next, naive CD4^+ T cells were sorted from DO11.10 mice (Charles River) having OVA-specific TCR, DCs were mixed with the sorted cells at DC:CD4^+ T=1:10 (the number of cells), and then the cells were co-cultured. At this time, the medium was supplemented with 0.5 ng/mL TGF-β1 and 0.1 μM OVA323-339 peptide and then culture was performed for 5 days. Subsequently, Treg generation efficiency was determined as in (A) above.
# In a manner similar to that in Example 5, the Treg-inducing activity of mDCs treated with 14-DHE was measured. Similar measurement was also performed using DCs not treated with 14-DHE as a control.
# [4] = test system: C57BL/6 mDCs co-cultured with OT-II mouse naive CD4+ T cells; assay: Cytokine profile of CD4+ T cells induced by DCs treated with 14-DHE, antigen-specific T cell reaction (Example 11); format: cell-based; conditions: 0.1 μM OVA323-339 peptide, day 4, vs control mDCs
# Method: mDCs were prepared by the method same as that in the MLR experiment. Naive CD4^+ T cells were prepared from OT-II mice (Charles River) in which TCR of CD4^+ T cells is specific for OVA323-339 epitope on the C57BL/6 background. Mixed culture was performed at a ratio of mDC:CD4^+ T cell of 1:5 in the presence of 0.1 μM OVA323-339 peptide. The culture supernatant was recovered on day 4 of culture, and then TNF-α, IFN-γ, IL-6, IL-10, and IL-17 were measured by ELISA.
# [5] = 1, 5 or 10 μM, LPS 5 ng/mL 24 h
# [6] = 1, 5 or 10 μM, LPS 5 ng/mL, culture supernatant
smiles,measurement,setting,value
"CC(C)[C@@H](C)/C=C/[C@@H](C)[C@H]1CC=C2C3=CC=C4C[C@@H](O)CC[C@]4(C)[C@H]3CC[C@@]21C [Sample 14-DHE, ergosta-5,7,14,22-tetraen-3β-ol]",expression level of CD40,[1]; [5],significantly decreased
same,expression level of CD80,[1]; [5],significantly decreased
same,expression level of CD86,[1]; [5],significantly decreased
same,expression level of ICOS-L marker,[1]; [5],remained almost unchanged
same,expression level of MHC class II molecule I-A/I-E,[1]; [5],significantly decreased
same,expression of anti-inflammatory cytokine IL-10 (ELISA),[1]; [6],slightly increased
same,expression of inflammatory cytokine IL-12p40 (ELISA),[1]; [6],drastically decreased
same,effective concentration on DCs,[1]; DCs,1 µM
same,generation of Treg compared with the control,[2],about 2 times
same,generation of Treg compared with the control,[3],about 2 times
same,IFN-γ production (ELISA),[4],no statistically significant difference was observed
same,IL-6 production (ELISA),[4],a significant decrease
same,IL-10 production (ELISA),[4],significant increase
same,IL-17 production (ELISA),[4],no statistically significant difference was observed
same,TNF-α production (ELISA),[4],a significant decrease

# Source: patent US9101566B2, “Fermentation product of cereal plant-derived material and immunomodulator” (KIRIN HOLDINGS KABUSHIKI KAISHA, priority 2009, dated 2015)
